Experiment [1] has as its system T1, LigX.
T1 construct: LigXa with LigXc and LigXd
Nature of the experiment: Cited steady-state O-demethylation of 5,5'-dehydrodivanillate (10-500 uM) by 0.2 uM LigXa, 6 uM LigXc and 0.4 uM LigXd with 500 uM NADH in FE22 buffer, pH 6.0, 30 °C, air. The format is biochemical. The note with it: cited from earlier work.

Experiment [2] has as its system LigX. Details: method as in ref 37 (a number printed in a supplementary file, which may have a reference list of its own: not looked up in the article's list). The note with it: 0.2 μM LigXa, 6 μM LigXc, 0.4 μM LigXd, 500 μM NADH, substrate 10-500 μM, FE22 buffer, pH 6.0, 30 °C; cited from earlier work.
The test system of experiment [3] is PODA. Also on record: method as in ref 36 (a number printed in a supplementary file, which may have a reference list of its own: not looked up in the article's list). The note with it: 100 μg PODA, 500 μM α-KG, 500 μM iron sulfate, 10 mM sodium ascorbate, cryptopine 0-500 μM, pH 7.4, 30 °C; cited from earlier work.
Experiment [4] relates to PODA. Nature of the experiment: Cited steady-state O-demethylation of cryptopine (0-500 uM) by 100 ug PODA with 500 uM alpha-ketoglutarate, 500 uM iron sulfate and 10 mM sodium ascorbate in 100 mM Tris, pH 7.4, 30 °C, air. The format is biochemical. As to conditions: cited from earlier work.
Experiment [5] deals with T2, GcoAB (Amycolatopsis sp., UniProt P0DPQ7).
T2 sequence (P0DPQ7 1-407): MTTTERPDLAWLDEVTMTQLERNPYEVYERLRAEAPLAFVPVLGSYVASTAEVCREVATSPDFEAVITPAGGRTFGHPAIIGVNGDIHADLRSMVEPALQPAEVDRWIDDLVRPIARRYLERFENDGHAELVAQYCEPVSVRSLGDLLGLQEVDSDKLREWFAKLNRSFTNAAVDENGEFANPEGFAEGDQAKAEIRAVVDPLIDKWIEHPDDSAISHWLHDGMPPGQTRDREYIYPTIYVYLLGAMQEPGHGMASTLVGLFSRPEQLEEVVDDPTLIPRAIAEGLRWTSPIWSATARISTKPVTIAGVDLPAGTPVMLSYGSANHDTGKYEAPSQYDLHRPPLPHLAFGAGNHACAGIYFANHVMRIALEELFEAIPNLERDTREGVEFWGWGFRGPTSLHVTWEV
T2 sequence (P0DPQ8 1-334 partner): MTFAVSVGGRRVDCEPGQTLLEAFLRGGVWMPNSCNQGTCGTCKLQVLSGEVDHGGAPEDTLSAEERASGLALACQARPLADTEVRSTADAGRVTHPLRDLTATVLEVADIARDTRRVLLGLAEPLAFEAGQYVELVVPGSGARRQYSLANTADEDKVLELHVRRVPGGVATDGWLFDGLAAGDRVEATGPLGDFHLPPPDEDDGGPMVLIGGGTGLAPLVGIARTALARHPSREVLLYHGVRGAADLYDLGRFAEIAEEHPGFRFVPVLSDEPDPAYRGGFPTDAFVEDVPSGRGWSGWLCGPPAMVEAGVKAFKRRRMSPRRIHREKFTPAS
As to conditions: screen of ten O-methylated aromatic compounds. The method, then:
The demethylation of guaiacol and substrate analogs was continuously monitored under steady-state conditions. […] A total of 100 µg/mL catalase was added to each reaction to capture any H2O2 formed during the uncoupled reaction. […] A total of 20–300 µM guaiacol (preferred substrate) or an alternate substrate from a 2.5 mM stock dissolved in DMSO was added and the reaction was monitored via measurement of UV/vis spectra for several minutes. […] A plot of vi vs [guaiacol] was fit to Eq. (2) to obtain kcat, KM, and kcat/KM. For specific activity determination, the above method was used but with saturating (300 µM) guaiacol. […] Reported values are the average of ≥3 measurements and reported errors are standard deviations.
Reactions with vanillin were performed in the same manner described above.

Experiment [6] deals with LigM. Details: method as in ref 35 (a number printed in a supplementary file, which may have a reference list of its own: not looked up in the article's list). As to conditions: 0.076 μM LigM, 5 mM H4-folate, pH 8.0, 30 °C, cited from earlier work.

Each structure is given as a SMILES string. “Also recorded” adds a separate entry of the source.

`COc1cc(C(=O)O)cc(-c2cc(C(=O)O)cc(OC)c2O)c1O` [5,5'-dehydrodivanillate]: the Km in experiment [1] was 64 µM.
On to `COc1cc(C(=O)O)cc(-c2cc(C(=O)O)cc(OC)c2O)c1O` [5,5’-dehydrodivanillate], for which the kcat in experiment [2] was 6.1 ± 0.2 s⁻¹.
Regarding `COc1cc2c(cc1OC)C(=O)Cc1ccc3c(c1CN(C)CC2)OCO3` [cryptopine], the turnover number (kcat) in experiment [3] is 0.034 s⁻¹. In experiment [4], the Km is 27 µM.
With `COc1cc(C(=O)O)ccc1O` [vanillate], the “binding or catalytic interaction with GcoA” value in experiment [5] was “no detectable binding or catalytic interaction; also recorded: preclude binding and/or demethylation”. In addition, the Km in experiment [6] was 630 ± 80 µM. For the same molecule, in experiment [6] (vanillate 0.1-5 mM, 100 mM Tris, air), the kcat was 5.8 ± 0.25 s⁻¹.

These data come from article PMC6021390, “A promiscuous cytochrome P450 aromatic O-demethylase for lignin bioconversion” (Nature Communications, 2018).
